Measurements as given in PubChem BioAssay (NCI).
Several values for one entry are separate records, joined by “and”; a condition that tells them apart may be missing. Equal entries are not always repeated.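 Tested at 5 concentrations; 48 h exposure; 96-well plates; endpoints linearly interpolated, else capped at highest concentration. Here, GI50 denotes the concentration required for 50% inhibition of growth. TGI: concentration producing complete growth inhibition.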

How the values were obtained:
Test in all cases: NCI tumour cell line growth inhibition, 48 h
SK-OV-3 ovarian = test system: SK-OV-3 ovarian
NCI-H226 lung = test system: NCI-H226 lung
SNB-19 CNS = test system: SNB-19 CNS
ACHN renal = test system: ACHN renal
786-0 renal = test system: 786-0 renal
EKVX NSCLC = test system: EKVX NSCLC
KM12 colon = test system: KM12 colon
HOP-92 NSCLC = test system: HOP-92 NSCLC
SF-268 CNS = test system: SF-268 CNS
SK-MEL-2 melanoma = test system: SK-MEL-2 melanoma

SMILES | GI50 (SK-OV-3 ovarian) [µM] | TGI (SK-OV-3 ovarian) [µM] | GI50 (NCI-H226 lung) | TGI (NCI-H226 lung) [µM] | GI50 (SNB-19 CNS) [µM] | TGI (SNB-19 CNS) [µM] | GI50 (ACHN renal) | TGI (ACHN renal) [µM] | GI50 (786-0 renal) [µM] | TGI (786-0 renal) [µM] | GI50 (EKVX NSCLC) | TGI (EKVX NSCLC) [µM] | GI50 (KM12 colon) | TGI (KM12 colon) [µM] | GI50 (HOP-92 NSCLC) [µM] | TGI (HOP-92 NSCLC) [µM] | GI50 (SF-268 CNS) | TGI (SF-268 CNS) [µM] | TGI (SK-MEL-2 melanoma) [µM] | GI50 (SK-MEL-2 melanoma) [µM]
C[CH2][Ge]([CH2]C)([CH2]C)[O]C(=O)C(OC(C)=O)c1ccccc1 (centres undefined) | > 100 | > 100 | > 100 µM | > 100 | > 100 | > 100 | > 100 µM | > 100 | > 100 | > 100 | 38.3 µM | > 100 | > 100 µM | > 100 | 57.9 | > 100 | > 100 µM | > 100 |  | 
CN(C)c1ccc2oc(=O)c3ccccc3c2c1 |  |  |  | > 100 |  | 70.2 |  | 62.9 |  | 79.6 |  | > 100 |  |  |  | > 100 |  | > 100 | 84.1 | 
O=C([CH-]C(=O)c1ccccc1)c1ccccc1.[CH-]1CCCCC1.[CH-]1CCCCC1.[CH-]1CCCCC1.[Sn+4] | 43.5 | 68.6 | 5.73 µM | 39.3 | 5.43 | 18.4 | 13.8 µM | 31.9 | 4.25 | 15.1 | 10.7 µM | 32.6 | 10.8 µM | 24.2 |  |  | 7.64 µM | 24.1 | 11.9 | 3.39
CCOC(=O)c1cc2c(cc1Cl)SC(=Nc1ccccc1)N(S(=O)(=O)c1ccc(Cl)cc1)S2(=O)=O | 17.4 | 35.2 | 6.03 µM | 28.2 | 20.2 | > 100 | 14.5 µM | 28.8 | 13.5 | 27.5 | 16.6 µM | 31.8 | 15.1 µM | 30.4 |  |  | 12.1 µM | 32 | 30.4 | 12.1
CCOP(=O)(OCC)C1CCCOC1=O (centres undefined) |  | > 100 |  |  |  | > 100 |  | > 100 |  | > 100 |  | > 100 |  | > 100 |  |  |  | > 100 | > 100 | 
C[N+](C)(C)CC(=O)N/N=C(/C(=O)Nc1ccc(Br)cc1)C1C(=O)NC(=O)NC1=O |  | > 100 |  | > 100 |  | > 100 |  | > 100 |  | > 100 |  | > 100 |  | > 100 |  |  |  | > 100 | > 100 | 
Cc1csc2[n+]1-c1ccccc1N(C(=O)Nc1ccccc1)C(C)C2 (centres undefined) |  |  | > 100 µM | > 100 | > 100 | > 100 | 55.5 µM | > 100 | 17.7 | 35.8 | > 100 µM | > 100 | > 100 µM | > 100 | 41.7 | > 100 | > 100 µM | > 100 | > 100 | > 100
O=C(CC1OC(O)C(Cl)=C1Cl)c1cccnc1 (centres undefined) |  | > 100 |  | > 100 |  | > 100 |  | > 31.6 |  | > 60.1 |  | > 100 |  | > 100 |  | > 100 |  | > 100 |  | 
CC(C)(C)C1CCC2c3c([nH]c4ccccc34)C3C(=O)N(c4ccc(Cl)cc4)C(=O)C3C2C1 (centres undefined) | > 100 | > 100 | 72.8 µM and > 10 µM | > 100 | > 100 | > 100 | 76.5 µM and > 10 µM | > 100 | > 100 | > 100 | 63.9 µM and > 10 µM | > 100 | 44.3 µM and > 10 µM | > 100 |  |  | 53.9 µM and > 10 µM | > 100 | > 10 | 
COc1ccc(Cc2coc3ccccc3c2=O)cc1OC |  | > 100 |  | > 100 |  | > 100 |  | > 100 |  | > 100 |  | > 100 |  |  |  | > 100 |  | > 100 | > 100 | 
CC(C)(C)c1ccc(Oc2ccc(N)cn2)cc1 | > 100 | > 100 | 44.5 µM | > 100 | > 100 | > 100 | > 100 µM | > 100 | 16.8 | > 100 | 28.2 µM | > 100 | 44.2 µM | > 100 |  |  | 5.77 µM | > 100 | > 100 | > 100
CC1=C(C(=O)Nc2ccccc2)C(c2cccc3ccccc23)C(C(=O)Nc2ccccc2)=C(C)N1 |  | 38.5 |  | 16 |  | 72.5 |  | 83.8 |  | 52.5 |  | 37.6 |  |  |  | 58.8 |  | 43.1 | 34.7 | 
Nc1nc([Se])c2ncn(C3OC(CO)C(O)C3O)c2n1 (centres undefined) | 6.96 | > 100 | 9.29 µM | > 100 | > 100 | > 100 | 20.8 µM | > 100 | 17.2 | > 100 | 37.6 µM | > 100 | 10.2 µM | 54.9 |  |  | 9.27 µM | > 100 | > 100 | 59.8
O=C1CC(c2cccc(F)c2)Nc2cc3c(cc21)OCO3 (centres undefined) | 0.0111 | > 100 | < 0.01 µM |  |  | 3.12 | < 0.01 µM | 22.6 | < 0.01 | > 100 |  | > 100 |  |  | 30.8 | > 100 | 1.53 µM | > 100 |  | 
CNC(=O)c1c(NC(=O)c2ccc(C(C)(C)C)cc2)sc2c(CN(C)C)c(O)ccc12 |  |  |  |  |  |  |  |  | 1.74 | 3.3 |  |  | 1.78 µM | 3.2 | 1.2 | 2.74 | 1.77 µM | 3.46 | 4.28 | 2.1
CC(=O)c1c2c(cc3c1CC1(C3)Cc3cc4c(c(C(C)=O)c3C1)CCC4)CCC2 |  |  |  |  |  | > 100 |  | > 100 |  | > 100 |  |  |  | > 100 |  | > 100 |  | > 100 |  | 
C[C@]12CC[C@H]3[C@@H](CC=C4C[C@@H](N5CCCC5)CC[C@@]43C)[C@@H]1C/C(=C\c1cccc(OCCN3CCOCC3)c1)[C@@H]2O | 17.2 | 35.1 | 22 µM | 53.8 | 4.41 | > 100 | 4.29 µM | 32.5 | 1.64 | 3.62 | 8.02 µM | > 100 | 5.02 µM | > 100 |  |  | 13.3 µM | > 100 | 31.8 | 14.1
